Values of other authors, collected in patent publication US12564551B2, “Composition or oat extract comprising avenanthramide and β-glucan” (SYMRISE AG, priority 2020, dated 2026).

Settings: Avn C, followed by Avn B and Avn A

Structure (SMILES): O=C(C=Cc1ccc(O)c(O)c1)Nc1ccc(O)cc1C(=O)O [Avn C, N-(3′,4′-dihydroxycinnamoyl)-5-hydroxyanthranilic acid]
- antioxidant activity, rank among Avns (in words): highest activity
